Assays:
VHL = target: T1, VHL (Homo sapiens, UniProt P40337); assay: VHL nanoBRET (+Digitonin); format: cell-based
T1 construct: expressed in transfected cells

[1] = target: T2, NanoLuc VHL fusion protein stably expressed in HEK 293 cells (Homo sapiens, UniProt P40337); assay: VHL HEK-293 BRET Assay (VHL NanoBRET Target Engagement Assay); format: cell-based; settings: for IC50: HEK293 cells, nanoBRET, geometric mean where more than one measurement, read-out: VHL binding in cells (HEK293 nanoBRET); for Ratio cell permeability shift: ratio of nanoBRET in cells to nanoBRET +Digitonin
T2 construct: expressed in transfected cells
Protocol: The VHL NanoBRET™ Target Engagement Assay analyzes the apparent affinity of test compounds for VHL in cells by competitive displacement of a VHL NanoBRET™ tracer reversibly bound to a NanoLuc® VHL fusion protein stably expressed in the cells.
Test compounds were transferred to the assay plate (384 Well White Non-Binding Corning Assay Plates (Corning-3574)) using an Echo 555 Liquid Handler (Labcyte) in 2.5 nL increments and, as appropriate, intermediate stock concentrations of compounds, in order to prepare a titration series. 50 nL of control compound (10 mM; parental unlabeled VHL antagonist; see structure below) and 50 nL of DMSO (negative control) were dispensed into the appropriate control wells. DMSO was backfilled to a final volume of 50 nL as required. 50 nl per well of 1 mM VHL NanoBRET™ Tracer in DMSO (NanoBRET™ Tracer-PEG2-590 (see structure below)) was transferred into each well using an Echo 555 (ultimately yielding a final concentration of 1 uM). HEK 293 RT VHL-NanoLuc® stable cells were cultured in DMEM High Glucose with Pyruvate, 10% fetal bovine serum, 2 mg/mL of Geneticin Selective Antibiotic (50 mg/ml) and 2 mM HEPES (1 M). Cells were seeded in Opti-MEM (Life Technologies-11058-021), 1.7×10^5 cells/mL, 40 μl per well into the assay plate, centrifuged at 500 rpm for 30 seconds and incubated for 2 hours. Max Signal control wells consisted of DMSO only treated wells. Minimum Signal control wells contained of 10 uM parental unlabeled VHL antagonist (control compound—see structure below). 3× Complete Substrate plus Inhibitor Solution was prepared in Opti-MEM (consists of a 1:166 dilution of NanoBRET™ Nano-Glo® Substrate plus a 1:500 dilution of Extracellular NanoLuc® Inhibitor in Opti-MEM), and 20 ul was dispensed into each well of the 384-well plate and centrifuged at 1000 rpm for 1 minute, then incubated for 2 minutes at room temperature. Background Signal control wells were prepared without tracer for background correction steps.
Plates were read using a PerkinElmer Envision Reader (model 2104-0020) equipped with Luminescence option (Mirror: BRET2 Enh (PE Barcode 659), Emission Filter: Omega 610LP (Barcode 504), 2nd Emission Filter: Umbelliferone 460 (Barcode 207), Measurement height: 6.5 mm, Measurement time: 1 s). The raw BRET ratio values were calculated by dividing the acceptor emission value (610 nm) by the donor emission value (460 nm) for each sample. To correct for background, the BRET ratio in the absence of tracer (average of no-tracer control samples) was subtracted from the BRET ratio of each sample. Raw BRET units were converted to milliBRET units (mBU) by multiplying each raw BRET value by 1,000. The normalized NanoBRET™ signal was calculated relative to the Max Signal control wells (DMSO treated control wells) and the Minimum Signal control wells. Percentage inhibition was calculated relative to the Minimum Signal control and Maximum Signal control wells. IC50 values were derived by four parameter curve fitting using the Robust method.

T1 sequence (P40337 whole entry): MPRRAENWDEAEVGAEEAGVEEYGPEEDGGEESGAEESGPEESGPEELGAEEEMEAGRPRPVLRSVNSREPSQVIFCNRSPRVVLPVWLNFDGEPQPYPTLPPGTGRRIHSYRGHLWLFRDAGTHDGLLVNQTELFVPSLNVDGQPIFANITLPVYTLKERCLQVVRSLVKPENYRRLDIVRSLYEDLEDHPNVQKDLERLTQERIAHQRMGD
T1 sequence (Q15370 whole entry partner): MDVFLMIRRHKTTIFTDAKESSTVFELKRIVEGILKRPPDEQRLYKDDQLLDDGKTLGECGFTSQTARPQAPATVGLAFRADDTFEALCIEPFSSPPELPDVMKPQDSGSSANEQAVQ
T1 sequence (Q15369 whole entry partner): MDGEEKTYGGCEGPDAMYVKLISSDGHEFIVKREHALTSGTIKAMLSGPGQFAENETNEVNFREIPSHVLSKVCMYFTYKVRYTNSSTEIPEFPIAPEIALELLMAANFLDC
T2 sequence (P40337 whole entry, the tested form may be a part): as the sequence (P40337 whole entry) above
T2 sequence (Q15370 whole entry partner, the tested form may be a part): as the sequence (Q15370 whole entry partner) above
T2 sequence (Q15369 whole entry partner, the tested form may be a part): as the sequence (Q15369 whole entry partner) above

SMILES	EC50 (VHL) [µM]	IC50 [1] [µM]	Ratio cell permeability shift [1]
CNC(=O)[C@@H]1C[C@@H](O)CN1C(=O)[C@H](C(C)C)n1cc(-c2ccc[nH]2)nn1 (mixture of isomers) [Final product from Example S29, (2S, 4R)-4-hydroxy-N-methyl-1-[rac-(2S)-3-methyl-2-[4-(1H-pyrrol-2-yl)triazol-1-yl]butanoyl]pyrrolidine-2-carboxamide]	2.11	2.65	1.26
CNC(=O)[C@@H]1C[C@@H](O)CN1C(=O)[C@H](C(C)C)n1cc(-c2nccs2)nn1 (mixture of isomers) [Final product from Example S31, (2S, 4R)-4-hydroxy-N-methyl-1-[rac-(2S)-3-methyl-2-(4-thiazol-2-yltriazol-1-yl)butanoyl]pyrrolidine-2-carboxamide]	1.2	1.1	0.92
CNC(=O)[C@@H]1C[C@@H](O)CN1C(=O)[C@H](C1CCOCC1)n1cc(C2CC2)nn1 (single isomer, unassigned) [Final product from Example S6]	2.68	8.04	3.00
CNC(=O)[C@@H]1C[C@@H](O)CN1C(=O)[C@H](C1CCCCC1)n1cc(-c2ccco2)nn1 (single isomer, unassigned) [Final product from Example S23]	0.47	0.32	0.68
CNC(=O)[C@@H]1C[C@@H](O)CN1C(=O)[C@H](C(C)C)n1nnc2ccccc21 (single isomer, unassigned) [Final product from Example S24]	2.84	2.15	0.76
CNC(=O)[C@@H]1C[C@@H](O)CN1C(=O)[C@H](C(C)C)n1nnc2c(OC)cccc21 (single isomer, unassigned) [Final product from Example S25]	3.8	2.6	0.68
CNC(=O)[C@@H]1C[C@@H](O)CN1C(=O)[C@H](C(C)C)n1nnc2cc(F)c(F)cc21 (single isomer, unassigned) [Final product from Example S26]	1.98	1.02	0.51
CNC(=O)[C@@H]1C[C@@H](O)CN1C(=O)[C@H](C(C)C)n1cc(-c2ncco2)nn1 (single isomer, unassigned) [Final product from Example S30]	0.97	0.92	0.95
CNC(=O)[C@@H]1C[C@@H](O)CN1C(=O)[C@H](C(C)C)n1cc(-c2cncs2)nn1 (single isomer, unassigned) [Final product from Example S33]	1.12	0.9	0.80
CNC(=O)[C@@H]1C[C@@H](O)CN1C(=O)[C@H](C(C)C)n1cc(C2CC2)nn1 (single isomer, unassigned) [Isomer A from Example S11]	3.1	3	0.97
CNC(=O)[C@@H]1C[C@@H](O)CN1C(=O)[C@@H](C(C)C)n1cc(C2CC2)nn1 (single isomer, unassigned) [Isomer B from Example S11]	> 100	> 100	–
CNC(=O)[C@@H]1C[C@@H](O)CN1C(=O)[C@@H](n1cc(C2CC2)nn1)C(C)(C)C [Final product from Example S2, (2S,4R)-1-((S)-2-(4-cyclopropyl-1H-1,2,3-triazol-1-yl)-3,3-dimethylbutanoyl)-4-hydroxy-N-methylpyrrolidine-2-carboxamide]	2.55	2.99	1.17
CNC(=O)[C@@H]1C[C@@H](O)CN1C(=O)[C@H](C1CCCCC1)n1cc(C2CC2)nn1 [Final product from Example S3, (2S,4R)-1-((S)-2-cyclohexyl-2-(4-cyclopropyl-1H-1,2,3-triazol-1-yl)acetyl)-4-hydroxy-N-methylpyrrolidine-2-carboxamide]	1.67	1.61	0.96
CNC(=O)[C@@H]1C[C@@H](O)CN1C(=O)[C@@H](n1ccnn1)C(C)(C)C [Final product from Example S4, (2S,4R)-1-((S)-3,3-dimethyl-2-(1H-1,2,3-triazol-1-yl)butanoyl)-4-hydroxy-N-methylpyrrolidine-2-carboxamide]	12.1	15.2	1.26
CNC(=O)[C@@H]1C[C@@H](O)CN1C(=O)C(n1cc(C2CC2)nn1)C1(C)CCCCC1 (stereo partly drawn) [Final product from Example S5, (2S,4R)-1-[2-(4-cyclopropyltriazol-1-yl)-2-(1-methylcyclohexyl)acetyl]-4-hydroxy-N-methyl-pyrrolidine-2-carboxamide]	8.45	10.5	1.24
CNC(=O)[C@@H]1C[C@@H](O)CN1C(=O)[C@H](C1CCNCC1)n1cc(C2CC2)nn1 [Final product from Example S7, (2S,4R)-1-((S)-2-(4-cyclopropyl-1H-1,2,3-triazol-1-yl)-2-(piperidin-4-yl)acetyl)-4-hydroxy-N-methylpyrrolidine-2-carboxamide]	8.96	–	>10.00
CNC(=O)[C@@H]1C[C@@H](O)CN1C(=O)[C@H](C1CCN(C)CC1)n1cc(C2CC2)nn1 [Final product from Example S8, (2S,4R)-1-((S)-2-(4-cyclopropyl-1H-1,2,3-triazol-1-yl)-2-(1-methylpiperidin-4-yl)acetyl)-4-hydroxy-N-methylpyrrolidine-2-carboxamide]	10.8	–	>10.00
CNC(=O)[C@@H]1C[C@@H](O)CN1C(=O)[C@H](C1CCN(C(C)=O)CC1)n1cc(C2CC2)nn1 [Final product from Example S9, (2S,4R)-1-((S)-2-(1-acetylpiperidin-4-yl)-2-(4-cyclopropyl-1H-1,2,3-triazol-1-yl)acetyl)-4-hydroxy-N-methylpyrrolidine-2-carboxamide]	2.67	69.5	26.03
CNC(=O)[C@@H]1C[C@@H](O)CN1C(=O)[C@H](C1CCN(S(C)(=O)=O)CC1)n1cc(C2CC2)nn1 [Final product from Example S10, (2S,4R)-1-((S)-2-(4-cyclopropyl-1H-1,2,3-triazol-1-yl)-2-(1-(methylsulfonyl)piperidin-4-yl)acetyl)-4-hydroxy-N-methylpyrrolidine-2-carboxamide]	2.07	10	4.83
CNC(=O)[C@@H]1C[C@@H](OC(C)=O)CN1C(=O)[C@@H](n1cc(C2CC2)nn1)C(C)(C)C [Final product from Example S12, (3R,5S)-1-((S)-2-(4-cyclopropyl-1H-1,2,3-triazol-1-yl)-3,3-dimethylbutanoyl)-5-(methylcarbamoyl)pyrrolidin-3-yl Acetate]	92.8	62.8	0.68
CC(C)(C)[C@@H](C(=O)N1C[C@H](O)C[C@H]1C(=O)NC1CC1)n1cc(C2CC2)nn1 [Final product from Example S13, (2S,4R)—N-cyclopropyl-1-((S)-2-(4-cyclopropyl-1H-1,2,3-triazol-1-yl)-3,3-dimethylbutanoyl)-4-hydroxypyrrolidine-2-carboxamide]	6.27	9.68	1.54
CC(C)(C)[C@@H](C(=O)N1C[C@H](O)C[C@H]1C(=O)NCC(F)(F)F)n1cc(C2CC2)nn1 [Final product from Example S14, (2S,4R)-1-((S)-2-(4-cyclopropyl-1H-1,2,3-triazol-1-yl)-3,3-dimethylbutanoyl)-4-hydroxy-N-(2,2,2-trifluoroethyl)pyrrolidine-2-carboxamide]	5.3	6.55	1.24

Reference: patent US12643884B2, “1-(2-(4-cyclopropyl-1H-1,2,3-triazol-1-yl)acetyl)-4-hydroxypyrrolidine-2-carboxa|mide derivatives as VHL inhibitors for the treatment of anemia” (Genentech, Inc., priority 2020, dated 2026)
